The data set deals with rodent lifetime carcinogenesis bioassay, tumor incidence TD50. Nature of the data set: carcinogenic potency in animals, long-term in vivo studies, CPDB compilation (AID 1745844).
The mark [1] stands for this setting: rat, strain Osborne-Mendel, both sexes, in feed, site: any site (literature study), lesion: several types, types named in the paper, dosed 104 weeks, study length 104 weeks.

Calls of active or inactive are those of the source. How the calls were made is not given here.

Turning to `O=C(O)C1=NN(c2ccc(S(=O)(=O)O)cc2)C(=O)C1N=Nc1ccc(S(=O)(=O)O)cc1` (centres undefined), the TD50 by setting is: (mouse, strain Charles River CD1, females, in feed, site: all sites, lesion: malignant lymphoma, lymphocytic type, dosed 104 weeks, study length 104 weeks) 1430 mg/kg/day (inactive); (mouse, strain Charles River CD1, females, in feed, site: any site (literature study), lesion: malignant tumor, dosed 104 weeks, study length 104 weeks) 1560 mg/kg/day (inactive); (mouse, strain Charles River CD1, females, in feed, site: liver, lesion: hepatocellular adenoma, dosed 104 weeks, study length 104 weeks) 200000 mg/kg/day (inactive); (mouse, strain Charles River CD1, males, in feed, site: all sites, lesion: malignant lymphoma, lymphocytic type, dosed 104 weeks, study length 104 weeks) 11800 mg/kg/day (inactive); (mouse, strain Charles River CD1, males, in feed, site: any site (literature study), lesion: benign tumor, dosed 104 weeks, study length 104 weeks) 388 mg/kg/day (inactive); (mouse, strain Charles River CD1, males, in feed, site: any site (literature study), lesion: malignant tumor, dosed 104 weeks, study length 104 weeks) 1810 mg/kg/day (inactive). The TD50 is, setting by setting: (mouse, strain Charles River CD1, males, in feed, site: liver, lesion: hepatocellular adenocarcinoma, dosed 104 weeks, study length 104 weeks) 61100 mg/kg/day (inactive); (mouse, strain Charles River CD1, males, in feed, site: liver, lesion: hepatocellular adenoma, dosed 104 weeks, study length 104 weeks) 2150 mg/kg/day (inactive); (mouse, strain Charles River CD1, males, in feed, site: lung, lesion: alveolar/bronchiolar adenoma, dosed 104 weeks, study length 104 weeks) 42500 mg/kg/day (inactive); (rat, strain F344/DuCrj, females, in drinking water, site: uterus, lesion: endometrial stromal polyp, dosed 104 weeks, study length 112 weeks) 5780 mg/kg/day (inactive); (rat, strain F344/DuCrj, males, in drinking water, site: abdominal cavity, lesion: mesothelioma, dosed 104 weeks, study length 112 weeks) 2820 mg/kg/day (inactive); (rat, strain Osborne-Mendel, both sexes, in feed, site: liver, lesion: adenoma, dosed 104 weeks, study length 104 weeks) 231000 mg/kg/day (inactive). Moreover, the carcinogen call by setting is: (mouse, strain Charles River CD1, females, in feed, site: any site (literature study), lesion: benign tumor, dosed 104 weeks, study length 104 weeks) “negative (inactive)”; (mouse, strain Charles River CD1, females, in feed, site: liver, lesion: hepatocellular adenocarcinoma, dosed 104 weeks, study length 104 weeks) “negative (inactive)”; (mouse, strain Charles River CD1, females, in feed, site: lung, lesion: alveolar/bronchiolar adenocarcinoma, dosed 104 weeks, study length 104 weeks) “negative (inactive)”; (mouse, strain Charles River CD1, females, in feed, site: lung, lesion: alveolar/bronchiolar adenoma, dosed 104 weeks, study length 104 weeks) “negative (inactive)”; (mouse, strain Charles River CD1, males, in feed, site: lung, lesion: alveolar/bronchiolar adenocarcinoma, dosed 104 weeks, study length 104 weeks) “negative (inactive)”; (rat, strain F344/DuCrj, females, in drinking water, site: any site (literature study), lesion: one or several types, types not named, dosed 104 weeks, study length 112 weeks) “negative (inactive)”. For the same compound, the carcinogen call reads like this: (rat, strain F344/DuCrj, females, in drinking water, site: liver, lesion: neoplastic nodule, dosed 104 weeks, study length 112 weeks) “negative (inactive)”; (rat, strain F344/DuCrj, males, in drinking water, site: any site (literature study), lesion: one or several types, types not named, dosed 104 weeks, study length 112 weeks) “negative (inactive)”; (rat, strain F344/DuCrj, males, in drinking water, site: liver, lesion: hepatocellular carcinoma, dosed 104 weeks, study length 112 weeks) “negative (inactive)”; (rat, strain F344/DuCrj, males, in drinking water, site: liver, lesion: neoplastic nodule, dosed 104 weeks, study length 112 weeks) “negative (inactive)”; (rat, strain Not specified, females, in feed, site: any site (literature study), lesion: several types, types named in the paper, dosed 64 weeks, study length 64 weeks) “negative (inactive)”; (rat, strain Not specified, females, in feed, site: liver, lesion: one or several types, types not named, dosed 64 weeks, study length 64 weeks) “negative (inactive)”. The carcinogen call was “negative (inactive)” (rat, strain Not specified, males, in feed, site: any site (literature study), lesion: several types, types named in the paper, dosed 64 weeks, study length 64 weeks); “negative (inactive)” (rat, strain Not specified, males, in feed, site: liver, lesion: one or several types, types not named, dosed 64 weeks, study length 64 weeks); “negative (inactive)” (rat, strain Osborne-Mendel, both sexes, in feed, site: any site (literature study), lesion: malignant tumor, dosed 104 weeks, study length 104 weeks); “negative (inactive)” under setting [1].
For the compound `O=C1C(c2[nH]c3ccc(S(=O)(=O)O)cc3c2O)=Nc2ccc(S(=O)(=O)O)cc21`, the carcinogen call (mouse, strain Charles River CD1, females, in feed, site: liver, lesion: nodular hyperplasia, dosed 84 weeks, study length 84 weeks) was “negative (inactive)”; the carcinogen call (mouse, strain Charles River CD1, females, in feed, site: lung, lesion: adenoma, dosed 84 weeks, study length 84 weeks) was “negative (inactive)”; the carcinogen call (mouse, strain Charles River CD1, males, in feed, site: lung, lesion: adenoma, dosed 84 weeks, study length 84 weeks) is “negative (inactive)”; the carcinogen call (mouse, strain Charles River CD (Sprague-Dawley), females, in feed, site: any site (literature study), lesion: several types, types named in the paper, dosed 100 weeks, study length 100 weeks) is “negative (inactive)”. For the same compound, the TD50 runs as follows: (mouse, strain Charles River CD1, males, in feed, site: liver, lesion: nodular hyperplasia, dosed 84 weeks, study length 84 weeks) 20200 mg/kg/day (inactive); (mouse, strain Charles River CD (Sprague-Dawley), females, in feed, site: any site (literature study), lesion: malignant tumor, dosed 100 weeks, study length 100 weeks) 33900 mg/kg/day (inactive); (mouse, strain Charles River CD (Sprague-Dawley), males, in feed, site: any site (literature study), lesion: malignant tumor, dosed 95 weeks, study length 95 weeks) 57100 mg/kg/day (inactive); (mouse, strain Charles River CD (Sprague-Dawley), males, in feed, site: any site (literature study), lesion: several types, types named in the paper, dosed 95 weeks, study length 95 weeks) 23400 mg/kg/day (inactive); under setting [1], 5430 mg/kg/day (inactive).
On to `O=c1cc[nH]c(=O)[nH]1`, for which the TD50 by setting is: (mouse, strain B6C3F1, females, in feed, site: liver, lesion: hyperplastic nodule, dosed 96 weeks, study length 96 weeks) 18200 mg/kg/day; (mouse, strain B6C3F1, females, in feed, site: urinary bladder, lesion: carcinoma, in situ, dosed 96 weeks, study length 96 weeks) 56700 mg/kg/day; (mouse, strain B6C3F1, females, in feed, site: urinary bladder, lesion: leiomyosarcoma, dosed 96 weeks, study length 96 weeks) 56700 mg/kg/day; (mouse, strain B6C3F1, females, in feed, site: urinary bladder, lesion: transitional-cell carcinoma, dosed 96 weeks, study length 96 weeks) 1450 mg/kg/day; (mouse, strain B6C3F1, males, in feed, site: liver, lesion: hyperplastic nodule, dosed 96 weeks, study length 96 weeks) 48800 mg/kg/day; (mouse, strain B6C3F1, males, in feed, site: lung, lesion: adenocarcinoma, dosed 96 weeks, study length 96 weeks) 52300 mg/kg/day. In addition, the TD50 was 25700 mg/kg/day (mouse, strain B6C3F1, males, in feed, site: urinary bladder, lesion: squamous-cell carcinoma, dosed 96 weeks, study length 96 weeks); 25700 mg/kg/day (mouse, strain B6C3F1, males, in feed, site: urinary bladder, lesion: transitional-cell carcinoma, dosed 96 weeks, study length 96 weeks); 9760 mg/kg/day (rat, strain F344/DuCrj, females, in feed, site: kidney/pelvis, lesion: carcinoma, dosed 104 weeks, study length 104 weeks); 29300 mg/kg/day (rat, strain F344/DuCrj, females, in feed, site: urinary bladder, lesion: squamous-cell papilloma, dosed 104 weeks, study length 104 weeks); 5640 mg/kg/day (rat, strain F344/DuCrj, females, in feed, site: urinary bladder, lesion: transitional-cell carcinoma, dosed 104 weeks, study length 104 weeks); 4260 mg/kg/day (rat, strain F344/DuCrj, females, in feed, site: urinary bladder, lesion: transitional-cell papilloma, dosed 104 weeks, study length 104 weeks). For the same compound, the TD50 is 3090 mg/kg/day (rat, strain F344/DuCrj, males, in feed, site: kidney/pelvis, lesion: carcinoma, dosed 104 weeks, study length 104 weeks); 5750 mg/kg/day (rat, strain F344/DuCrj, males, in feed, site: kidney/pelvis, lesion: papilloma, dosed 104 weeks, study length 104 weeks); 24300 mg/kg/day (rat, strain F344/DuCrj, males, in feed, site: urinary bladder, lesion: leiomyosarcoma, dosed 104 weeks, study length 104 weeks); 7800 mg/kg/day (rat, strain F344/DuCrj, males, in feed, site: urinary bladder, lesion: squamous-cell carcinoma, dosed 104 weeks, study length 104 weeks); 24300 mg/kg/day (rat, strain F344/DuCrj, males, in feed, site: urinary bladder, lesion: squamous-cell papilloma, dosed 104 weeks, study length 104 weeks); 357 mg/kg/day (rat, strain F344/DuCrj, males, in feed, site: urinary bladder, lesion: transitional-cell carcinoma, dosed 104 weeks, study length 104 weeks). The TD50 (rat, strain F344/DuCrj, males, in feed, site: urinary bladder, lesion: transitional-cell papilloma, dosed 104 weeks, study length 104 weeks) was determined as 511 mg/kg/day.
Turning to `NC(=O)Cc1c([O-])on[n+]1Cc1ccccc1`, the TD50 (mouse, strain DDD, females, in drinking water, site: liver, lesion: hepatocellular adenoma, dosed 52 weeks, study length 52 weeks) worked out at 10.2 mg/kg/day; the TD50 (mouse, strain DDD, females, in drinking water, site: liver, lesion: hepatocellular carcinoma, dosed 52 weeks, study length 52 weeks) is 22.6 mg/kg/day; the TD50 (mouse, strain DDD, females, in drinking water, site: liver, lesion: several types, types named in the paper, dosed 52 weeks, study length 52 weeks) was 10.2 mg/kg/day; the TD50 (mouse, strain DDD, females, in drinking water, site: lung, lesion: adenoma, dosed 52 weeks, study length 52 weeks) is 31.4 mg/kg/day; the TD50 (rat, strain Donryu, males, in drinking water, site: liver, lesion: hepatocellular carcinoma, dosed 41 weeks, study length 91 weeks) is 4.24 mg/kg/day; the TD50 (rat, strain Donryu, males, in drinking water, site: liver, lesion: neoplastic nodule, dosed 41 weeks, study length 91 weeks) amounted to 15.1 mg/kg/day. For the same compound, the TD50 (rat, strain Donryu, males, in drinking water, site: liver, lesion: several types, types named in the paper, dosed 41 weeks, study length 91 weeks) is 4.24 mg/kg/day. For the same compound, the carcinogen call (rat, strain Donryu, males, in feed, site: liver, lesion: one or several types, types not named, dosed 104 weeks, study length 104 weeks) was “negative (inactive)”.
